Columns and labels:
Assay type in all cases: in vivo
Fmr1 KO mice [1] = test: Behavioral testing (cohort 2), overall conclusion; conditions: 20 and 200 mg/kg i.p. once daily
Experimental: Test compounds were evaluated at 2 doses each (20 and 200 mg/kg). Test compounds were injected i.p. (intraperitoneal) acutely at 60 min pre-treatment for audiogenic seizures (cohort 1). For all other behavioural testing, a separate cohort of animals were dosed i.p. once per day for 2 weeks prior to the start of testing and then for 2 weeks during testing, with 60 min pre-treatment on test days (cohort 2).
(§1) 60 male mice were tested at 8 weeks of age. CBD (SYN OR BOT 0.08%) were evaluated at 2 doses each (20 and 200 mg/kg) following once daily intraperitoneal administration, at a dose volume of 10 ml/kg. Compounds were administered for 2 weeks prior to the start of testing and throughout testing.
(§2) On the test day, compounds were administered 60 minutes prior to test.

Fmr1 KO mice [2] = test: Social interaction (three-chamber paradigm); conditions: higher dose (200 mg/kg i.p.)
Experimental: as §1, §2
The three-chamber paradigm is used to assess social interest. The Plexiglas testing apparatus consists of two side chambers and a center chamber, each 42.5 cm×17.5 cm×23 cm. […]
Group-housed naïve partner mice (age-matched C3H mice) were habituated to the chamber for 30 minutes the day before testing. […] The doorways were then lifted and the subject was allowed to feely explore all three chambers for 10 min while movement was video-recorded and scored manually for sniffing of the mouse or object. […]
Discrimination percentage for time spent in chambers was calculated as (total time spent in mouse chamber-total time spent in object)/(total time spent in mouse+total time in object chamber)*100 and presented in FIG. 4.
Discrimination percentage for interaction frequency was calculated as (number of interactions with mouse−number of interactions with object)/(total number of interactions with the mouse+the object)*100 and is presented in FIG. 5. […]

Fmr1 KO mice [3] = test: Open field
Experimental: as §1, §2
The open field chambers are Plexiglas square chambers (27.3×27.3×20.3 cm; Med Associates Inc., St Albans, Vt.) surrounded by infrared photo beams (16×16×16) to measure horizontal and vertical activity. On the day of testing, mice were brought to the activity experimental room for acclimation to the conditions at least 1 h prior to testing. After a 60 minute pretreatment time, mice were placed in the center of an open field activity box for a 60 minute test period. After the completion of the test, mice were placed back in their home cage.
The time courses for locomotor and rearing activities were presented in 5-minute bins during the 60 minute test. Total distance traveled, and numbers of rears were also summed during the 60 minute test.

Fmr1 KO mice [4] = test: Audiogenic seizures (cohort 1); conditions: 200 mg/kg i.p. acute, 60 min pre-treatment, vs vehicle-treated Fmr1 KO
Experimental: 48 male mice were tested at 3 weeks of age. CBD (SYN OR BOT 0.08%) were tested at 2 doses each (20 and 200 mg/kg) following acute intraperitoneal administration at a dose volume of 10 ml/kg. Compounds were administered 60 minutes prior to test.
Following pre-treatment with vehicle or test compound, mice were individually placed in a Plexiglas chamber and allowed to explore for 15 s following which they were exposed to a 125 dB tone for 2 minutes, followed by 1 minute of no sound, and then a further 2 minute tone. The mice were scored based on their response, latency, and seizure intensity:
The following endpoints were reported: • 1. Latency to seize: Time to first seizure (maximum 300 s). […] Latency to respiratory arrest: Time to death (maximum 300 s). Animals that survived received a score of 300 s. • 3. Seizure Score: Maximum score animals obtained during the 5 minute test.

Structure (SMILES): C=C(C)[C@@H]1CCC(C)=C[C@H]1c1c(O)cc(CCCCC)cc1O [CBD (SYN), cannabidiol]
- social or memory related behaviors (Fmr1 KO mice [1]): Neither the botanically derived purified CBD or the synthetic CBD were found to have any significant improvement
- discrimination percentage for time spent in chambers (Fmr1 KO mice [2]; Dunn's test vs vehicle-treated Fmr1 KO): enhanced discrimination compared to vehicle-treated Fmr1 KO mice
- total time spent in the partner mouse chamber (Fmr1 KO mice [2]; Sidak's test vs Fmr1 KO vehicle): spent significantly more time in the partner mouse chamber
- total distance traveled during the 60 minute test period (Fmr1 KO mice [3]; 20 mg/kg i.p. once daily, 60 min pre-treatment): traveled significantly more than mice treated with CBD (BOT 0.08%) 20 mg/kg
- rearing frequency in 5 min bins: periods in which Fmr1 KO-vehicle treated mice reared significantly more than the treated group (Fmr1 KO mice [3]; 200 mg/kg i.p. once daily, post-hoc multiple comparisons): during minutes 35-40 and during minutes 55-60
- median seizure score (Fmr1 KO mice [4]): This effect was not observed
